# Results reported in patent publication US7241863B2, “Human metabotropic glutamate receptor” (NPS Pharmaceuticals, Inc., priority 2003, dated 2007).
# Tests used:
# Assay type in all cases: cell-based
# human mGluR5d receptor = biological target: T1, human mGluR5d receptor (Homo sapiens, UniProt P41594); assay: Xenopus oocyte expression assay, calcium-activated chloride current; settings: for desensitization of evoked calcium-activated chloride currents: repeated application of 10-100 μM, Xenopus oocytes expressing hmGluR5d
# T1 construct: expressed in transfected cells; host or cells: Xenopus laevis oocytes injected with cRNA transcribed from phmGluR5d(Hyg+)
# Method: This example describes the activation of the novel hmGluRSd splice variant using a Xenopus oocyte expression assay. PhmGluR5d(Hyg+) DNA was linearized by restriction enzyme digestion, and capped sense-strand cRNA was synthesized by T7 RNA polymerase transcription (Ambion Message Machine Kit). In vitro-transcribed RNA was concentrated by ethanol precipitation and the size and integrity of the RNA was assessed on a denaturing agarose gel.
# In vitro-transcribed RNA (˜10 ng) encoding the human mGluR5d receptor was injected into Xenopus Oocytes. Following injection, oocytes were incubated at 16° C. in MBS containing 1 mM CaCl2 for 2 to 7 days prior to electrophysiological recording. Following the incubation, the oocytes were voltage-clamped using standard electrophysiological techniques. […] Activation of the hmGluR5d receptor was detected by increases in the calcium-activated chloride current.
# Test substances were applied by superfusion at a flow rate of about 5 ml/min. Receptor activation was determined by measuring the increase in calcium-activated chloride current (ICl) Increases in ICl were quantified by measuring the peak inward current stimulated by activating agent, relative to the holding current at […].
# [1] = biological target: T2, hCaR/hmGluR5d chimeric receptor (Homo sapiens, UniProt P41180); assay: Increases in intracellular calcium (Fluo3-AM, FLIPR) in HEK293 cells expressing the chimeric receptor; settings: hCaR/hmGluR5d expressed in HEK293 cells, FIG. 5
# T2 construct: expressed in transfected cells; host or cells: HEK293 cells (ATCC CRL 1573) stably transfected with phCaR/hmGluR5d(Hyg+)
# Method: This example provides a method for the production of stably transfected mammalian cell lines expressing the chimeric receptor hCaR/hmGluR5d, but is not meant to be limiting. Human embryonic kidney cells (293, ATCC, CRL 1573) are grown in a routine manner. Cells are plated in 10 cm cell-culture plates in Dulbecco's modified Eagle's medium (D-MEM) containing 10% fetal bovine serum (FBS) and 1×penicillin-streptomycin (Life Technologies) so that they are approximately 70% confluent after an overnight incubation. To prepare DNA for transfection, the plasmid phCaR/hmGluR5d(Hyg+) is precipitated with ethanol, rinsed and resuspended in sterile water at a concentration of 1 μg/μl. Ten micrograms of the plasmid DNA is incubated with the liposome formulation LipofectAMINE™ (Life Technologies) for 20 minutes in 1.6 mls of serum-free Opti-MEM (Life Technologies). […] Expression can also be assessed by Western blot analysis using the commercially available antibody Anti-Rat mGluR5, polyclonal (Upstate Biotechnology).
# The chimeric receptor, hCaR/hmGluR5d, also mediates the stimulation of inositol phosphate (IP)/Ca^2+ signal transduction. […] After an additional 24 hour incubation, cells are loaded with the calcium indicator dye Fluo3-AM and increases in intracellular calcium in response to calcium are measured using an automated fluorescent imaging plate reader (FLIPR). […]
# hmGluR5d receptor = biological target: T3, hmGluR5d receptor (Homo sapiens, UniProt P41594); assay: Increases in intracellular calcium (Fluo3-AM, FLIPR) in transfected HEK293 cells; settings: hmGluR5d expressed in HEK293 cells, FIG. 4
# T3 construct: The full-length human mGluR5d was then subcloned into the mammalian expression vector pcDNA3.1/Hygro(+) vector; expressed in transfected cells; host or cells: HEK293 cells (ATCC CRL 1573) transfected with phmGluR5d(Hyg+)
# T3 sequence (P41594 21-942 isoform P41594-3): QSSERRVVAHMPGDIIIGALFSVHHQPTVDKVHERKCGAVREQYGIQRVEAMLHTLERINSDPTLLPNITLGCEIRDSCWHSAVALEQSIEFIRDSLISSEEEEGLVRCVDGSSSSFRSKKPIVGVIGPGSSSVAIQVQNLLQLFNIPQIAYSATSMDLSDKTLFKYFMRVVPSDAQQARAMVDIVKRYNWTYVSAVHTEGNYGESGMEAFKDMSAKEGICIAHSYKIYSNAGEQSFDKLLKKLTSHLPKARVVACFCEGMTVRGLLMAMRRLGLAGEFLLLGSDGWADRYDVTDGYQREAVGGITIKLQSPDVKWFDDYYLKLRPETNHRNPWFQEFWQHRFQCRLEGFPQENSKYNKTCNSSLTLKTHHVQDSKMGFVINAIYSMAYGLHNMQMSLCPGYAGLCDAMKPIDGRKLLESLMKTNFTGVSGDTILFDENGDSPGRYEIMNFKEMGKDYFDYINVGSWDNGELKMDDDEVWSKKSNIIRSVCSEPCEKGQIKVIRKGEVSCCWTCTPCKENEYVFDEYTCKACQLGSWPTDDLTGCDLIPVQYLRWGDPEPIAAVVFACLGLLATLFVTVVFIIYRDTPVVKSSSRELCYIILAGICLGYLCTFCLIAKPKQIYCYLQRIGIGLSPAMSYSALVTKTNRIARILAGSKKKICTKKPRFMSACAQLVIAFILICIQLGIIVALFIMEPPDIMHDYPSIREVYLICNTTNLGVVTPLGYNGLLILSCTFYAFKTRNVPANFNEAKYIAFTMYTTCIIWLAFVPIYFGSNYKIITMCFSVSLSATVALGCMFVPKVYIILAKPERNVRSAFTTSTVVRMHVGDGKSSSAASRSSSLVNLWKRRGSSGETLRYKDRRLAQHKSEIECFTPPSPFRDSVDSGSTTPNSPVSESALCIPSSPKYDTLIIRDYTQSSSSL
# Method: Human embryonic kidney cells (293, ATCC, CRL 1573) are grown in a routine manner. Cells are plated in 10 cm cell-culture plates in Dulbecco's modified Eagle's medium (D-MEM) containing 10% fetal bovine serum (FBS) and 1× penicillin-streptomycin (Life Technologies) so that they are approximately 70% confluent after an overnight incubation. To prepare DNA for transfection, the plasmid phmGluR5d(Hyg+) is precipitated with ethanol, rinsed and resuspended in sterile water at a concentration of 1 μg/μl. Ten micrograms of the plasmid DNA is incubated with the liposome formulation LipofectAMINE™ (Life Technologies) for 20 minutes in 1.6 mls of serum-free Opti-MEM (Life Technologies). After the room temperature incubation, 6.4 mls of Opti-MEM is added to the transfection mix. This solution is added to the cells which have been rinsed twice with 8 ml washes of Opti-MEM. The cells and transfection mix are incubated at 37° C. for 5 hours, at which time 8 mls of Opti-MEM/20% FBS is added to bring the FBS concentration to 10%. […] Expression of the novel human mGluR5d splice variant of the present invention in clonal cell lines or pools can be assessed by Northern blot analysis of human mGluR5d mRNA or functionally as in the above experiments by assessing increases in intracellular calcium in response to mGluR5 agonists. […]
# T1 sequence (P41594 21-942 isoform P41594-3): as above
# T2 sequence (P41180 with tags, fused parts or gaps): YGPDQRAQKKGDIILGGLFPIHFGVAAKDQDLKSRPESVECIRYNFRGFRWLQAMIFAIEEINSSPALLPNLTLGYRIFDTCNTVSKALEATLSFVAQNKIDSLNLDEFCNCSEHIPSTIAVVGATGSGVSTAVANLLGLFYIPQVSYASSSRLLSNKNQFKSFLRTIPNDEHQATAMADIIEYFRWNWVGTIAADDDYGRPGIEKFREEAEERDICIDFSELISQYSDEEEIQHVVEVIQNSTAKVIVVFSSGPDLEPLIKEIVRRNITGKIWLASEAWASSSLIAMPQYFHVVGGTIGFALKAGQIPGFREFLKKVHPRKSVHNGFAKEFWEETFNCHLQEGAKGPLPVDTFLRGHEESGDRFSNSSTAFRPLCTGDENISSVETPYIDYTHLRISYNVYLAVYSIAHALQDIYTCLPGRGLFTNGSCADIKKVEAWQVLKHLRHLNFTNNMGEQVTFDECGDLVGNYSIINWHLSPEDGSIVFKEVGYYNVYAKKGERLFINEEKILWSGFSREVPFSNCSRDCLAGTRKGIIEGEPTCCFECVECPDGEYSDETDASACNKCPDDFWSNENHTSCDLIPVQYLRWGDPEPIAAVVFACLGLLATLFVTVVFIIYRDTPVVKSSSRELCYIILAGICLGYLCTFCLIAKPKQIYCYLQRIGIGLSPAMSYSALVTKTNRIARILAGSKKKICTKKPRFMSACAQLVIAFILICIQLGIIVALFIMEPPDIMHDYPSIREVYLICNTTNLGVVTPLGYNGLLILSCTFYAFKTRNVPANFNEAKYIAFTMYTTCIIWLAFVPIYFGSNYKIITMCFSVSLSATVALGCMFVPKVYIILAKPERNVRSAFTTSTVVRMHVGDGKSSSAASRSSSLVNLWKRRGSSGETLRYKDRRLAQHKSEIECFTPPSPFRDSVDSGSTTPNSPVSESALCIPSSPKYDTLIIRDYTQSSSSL
functional activation of the chimeric receptor (agonist) [1],functional activation of the receptor (agonist) (hmGluR5d receptor),Compound,"increase in calcium-activated chloride current (receptor activation) (human mGluR5d receptor; 100 μM, applied by superfusion, voltage-clamped Xenopus oocytes expressing hmGluR5d)",desensitization of evoked calcium-activated chloride currents (human mGluR5d receptor)
,,N[C@@H](CCC(=O)O)C(=O)O [L-glutamate],"reversible, oscillatory increases in the calcium-activated chloride current",only minimally desensitized
functional activation,,calcium,,
,functional activation,"N[C@H](C(=O)O)c1cc(O)cc(O)c1 [DHPG, (S)-3,5-dihydroxyphenylglycine]",,only minimally desensitized
